Consider one substance from patent US7722863B2, “Use of granzyme b as an hsp70/hsp70 peptide dependent inducer of apoptosis in tumor cells” (Multimmune GmbH, priority 2002, dated 2010).

“And” between values parts separate entries of the source, which are not always exact repeats. Equal values may be shown once.

Assay type in all cases: cell-based, human
The test system of assay [1] is CX+ tumor cells. Kind of assay: Cytochrome c release, quantitative immunoassay. Conditions: camptothecin 4 μg/ml or granzyme B 6 ng/ml, 24 h. Here is the method:
(§1) Cytochrome c release: Cytochrome c release was determined using a quantitative immunoassay; (DCDCO, R&D Systems, Wiesbaden, Germany). Briefly, either untreated, camptothecin (4 μg/ml) or granzyme B (6 ng/ml) treated CX+ and CX− cells (1.5×10^6/ml) were washed in PBS and treated with lysis buffer for 1 h at room temperature. Following centrifugation at 1,000 g for 15 min supernatants were removed and 200 μl of a 1:100, 1:250, and a 1:500 dilution was used for a sandwich ELISA. Following incubation with substrate solution in the dark for 30 min the reaction was stopped. The optical density of each well was determined on an ELISA reader at 450 nm. The amount of cytochrome c was determined according to a calibration curve.
(§2) As an additional test for apoptotic cell death, cytochrome c release was measured following incubation of CX+ and CX− cells with granzyme B for 24 h. As summarized in Table I, following incubation with granzyme B (6 ng/ml) for 24 h, cytochrome c concentration was elevated from 0.382 mg/ml to 0.690 mg/ml (1.8-fold) in CX+ cells. […] It was propose that the trigger of apoptosis by granzyme B is mediated via the extracellular exposed Hsp70 epitope TKD.

The test system of assay [2] is CX− tumor cells. Kind of assay: Cytochrome c release, quantitative immunoassay. As to conditions: camptothecin 4 μg/ml or granzyme B 6 ng/ml, 24 h. Here is the method: as §1, §2
The subject of assay [3] is CX+ tumor cells. Kind of assay: DAPI staining of nuclear DNA fragmentation. As to conditions: 24 h, camptothecin 4 μg/ml or granzyme B 6 ng/ml. Here is the method:
(§3) DAPI-staining: Methanol/aceton fixed cells (0.1×10^6 cells/100 μl) were incubated with 0.5 μg/μl 4,6-diamino-2-phenylindole (DAPI) in PBS/glycerol (3:1), for 15 min in the dark. Following washing in PBS the cells were mounted with Fluorescent Mounting Medium (Dako, Glostrup, Denmark) and than analysed for fluorescence using a Zeiss model Axioscop 2 scanning microscope (Zeiss Jena, Germany) equipped with a 40× objective and standard filters. Apoptosis was visualized with DAPI-staining in 50 cells, each. Images were treated by multiplicative shading correction using software Axiovision (Zeiss Vision Jena, Germany).

In assay [4] the test system is CX− tumor cells. Kind of assay: DAPI staining of nuclear DNA fragmentation. Conditions: 24 h, camptothecin 4 μg/ml or granzyme B 6 ng/ml. The protocol:
as §3

Another assay has as its system Colo+ tumor cells. Kind of assay: DAPI staining of nuclear DNA fragmentation. As to conditions: 24 h, camptothecin 4 μg/ml or granzyme B 6 ng/ml. Here is the method:
as §3

The test system of the next assay is Colo− tumor cells. Kind of assay: DAPI staining of nuclear DNA fragmentation. Conditions: 24 h, camptothecin 4 μg/ml or granzyme B 6 ng/ml. The protocol:
as §3

Assay [5] deals with Hsp70 membrane-positive CX+ tumor subline. Kind of assay: Cell surface binding and uptake of granzyme B (fluorescence microscopy, flow cytometry). (A flow cytometer gives signals particle by particle.)
For assay [6], the system named is Hsp70 membrane-negative CX− tumor subline. The assay is described as above. As to conditions: data not shown. Here is the method: (§4) Cells (0.5×10^6) were fixed in paraformaldehyde (1% PFA in PBS) for 10 min, and permeabilized in PBS containing BSA (0.5%), NaN3 (0.1%), and saponin (0.1%). Then permeabilized cells were incubated either with the granzyme B-phycoerythrin conjugated monoclonal antibody HC2-PE (IgG1; Hölzel Diagnosbka, Cologne, Germany) with an isotype-matched IgG1 control antibody, at 4° C. for 1 h, in the dark. Following washing cells were analysed on a FACSCalibur instrument (Becton Dickinson, Heidelberg, Germany).
(§5) Stock solutions of camptothecin (4 mg/ml, Sigma, Munich, Germany) were diluted in DMSO and stored at 4° C. in the dark. Granzyme B (6 ng/ml, Hölzel Diagnostics, Cologne, Germany) solutions were freshly prepared directly before usage. Exponentially growing cells (0.5-1.5×10^6/ml) were incubated either with camptothecin at a final concentration of 4 μg/ml or with purified, enzymatically active granzyme B (10 ng/ml, 1 μg/ml, 2 μg/ml; 4 μg/ml) (Shi et. al. (2000) Methods in Enzymology 322, 125) for 10 min, and 30 min either at 4° C. or at 37° C. After washing in RPMI-1640 medium binding and uptake was determined in nonpermeabilized and permeabilized tumor cells by flow cytometry and fluorescence microscopy on a Axioscop 25 scanning microscope (Zeiss, Jena, Germany) equipped with a 40× objective and standard filters. Images were treated by multiplicative shading correction using the software Axiovison (Zeiss Vison, Jena, Germany). Granzyme B was visualized in red by using the HC2-PE antibody.
(§6) The preceding findings posed the question whether membrane-bound Hsp70 might enable specific binding and entry of granzyme B into the cytosol. […] A light microscopical analysis of untreated CX+ and Colo+ cells (control) at 4° C. versus 37° C. is shown in the upper row of each panel (FIG. 2A). The corresponding immunofluorescence microscopy of the cells at 4° C. and 37° C. is illustrated below (control). […] (data not shown). […] (FIG. 2B, upper graph). […] However, even at the highest concentration of 4 μg/ml, granzyme B was internalized much more pronounced by Hsp70 membrane-positive as compared to Hsp70-negative tumor cells (CX−/Colo−). Potential ion channels formed by Hsp70 may play a role in the mechansim of selective granzyme B uptake in Hsp70 membrane-positive tumor cells. Indeed, a particular ion conductance pathway was observed after incorporation of vesicles derived from purified phospholipids of Hsp70 membrane-positive (CX+) tumor sublines. This was not seen in vesicles obtained from Hsp70 membrane-negative (CX−) tumor cells (data not shown).

Assay [7] concerns Hsp70 membrane-negative Colo− tumor subline. The assay is described as above. Conditions: data not shown. Here is the method:
as §4, §5, §6

Assay [8] deals with Hsp70 membrane-positive Colo+ tumor subline. Described as above. Here is the method: as §4, §5, §6
Assay [9] has as its system CX+/CX− and Colo+/Colo− tumor cells. Kind of assay: Light microscopical analysis of plastic adherence (anoikes). Conditions: 24 h post-treatment with granzyme B; Hsp70 membrane-positive and -negative lines. Here is the method: In order to exclude apoptosis initiated by anoikes light microscopical analysis of untreated (control), camptothecin (cam) and granzyme B (grB) treated CX+/CX− and Colo+/Colo− tumor cells were performed. […] Regarding these findings we ruled out the possibility that anoikes might be a possible mechanism for the induction of apoptotic cell death in Hsp70 membrane-positive tumor sublines. It is important to note that all apoptosis assays were determined within the adherent cell population following a short term (<1 min) trypsinization.

[10] abbreviates: 1 μg/ml granzyme B, 30 min, 37° C.
Where [11] appears, read: 15 min at 4° C., granzyme B 2 μg/ml.
Setting [12] is: temperature shift 4° C. to 37° C., 30 min.

granzyme B: the “cytochrome c fold increase” value with CX+ tumor cells [1] (control 1.0) was found to be 1.8 fold; in the assay on CX− tumor cells [2] (control 1.0) it was 0.9 fold. The cytochrome c in the assay with CX+ tumor cells [1] (mean of 4 experiments ± S.E., control 0.382 ± 0.02) was 0.690 mg/mL and 0.690 ± 0.08 mg/mL; in the assay with CX− tumor cells [2] (mean of 4 experiments ± S.E., control 0.452 ± 0.02), 0.425 mg/mL and 0.425 ± 0.075 mg/mL. Also, the “nuclear DNA fragmentation (DAPI)” value in the assay with CX+ tumor cells [3] is reported as “DNA fragmentation was detected”; with CX− tumor cells [4], “no DNA fragmentation was observed”; in the assay with Colo+ tumor cells, “DNA fragmentation was detected”; in the assay on Colo− tumor cells, “no DNA fragmentation was observed”. In addition, the “granzyme B uptake, flow cytometry of permeabilized cells” value in assay [5] (setting [10]) was “faint shift of the granzyme B peak to the right”; in [5] (2 μg/ml and 4 μg/ml granzyme B) it was “dose-dependent increase in granzyme B uptake”; in [8] (setting [10]), “faint shift of the granzyme B peak to the right”; in assay [8] (2 μg/ml and 4 μg/ml granzyme B) it was “dose-dependent increase in granzyme B uptake”. For the same substance, the “granzyme B cell surface binding (immunofluorescence)” value in assay [5] (setting [11]) was “typical cell surface staining, was detected”; in [6] (4° C.), “either exhibited any granzyme B cell surface binding at 4 °C”; in assay [7] (4° C.) it was “either exhibited any granzyme B cell surface binding at 4 °C”; in [8] (setting [11]) it was “typical cell surface staining, was detected”. In addition, the “granzyme B uptake, cytoplasmic staining (immunofluorescence)” value in [5] (setting [12]) and in assay [8] (setting [12]) was “resulted in uptake of granzyme B” throughout. In addition, the “granzyme B uptake (immunofluorescence)” value in assay [6] (37° C.) and in assay [7] (37° C.) was “nor uptake at 37 °C” each time. For the same substance, the “loss in plastic adherence” value in assay [9] is listed as “neither Hsp70 membrane-positive nor -negative tumor cell lines exhibited any signs of loss in plastic adherence”.
